Experimental findings from US20260158014A1, “METHODS OF ADMINISTERING VOXELOTOR” (Global Blood Therapeutics, Inc., priority 2021, published 2026) are described below.

The target in one series is CYP3A4 (Homo sapiens, UniProt P08684). In words: Clinical probe-substrate DDI study: midazolam. The following applies: healthy subjects. Here is the method:
The effect of voxelotor on the pharmacokinetics (PK) of a single dose of caffeine, warfarin sodium, omeprazole, and midazolam hydrochloride, which are probe substrates for cytochrome P450 (CYP)1A2, CYP2C9, CYP2C19, and CYP3A4, respectively, were studied in healthy subjects. During Period 1, subjects received a single dose of caffeine 100 mg, warfarin sodium 10 mg+vitamin K 10 mg, omeprazole 20 mg, and midazolam hydrochloride 2 mg on Day 1. During Period 2, subjects received voxelotor 900 mg QD on Days 1 and 2 followed by 600 mg QD on Day 3, a single dose of caffeine 100 mg, warfarin sodium 10 mg+vitamin K 10 mg, omeprazole 20 mg, and midazolam hydrochloride 2 mg on Day 4, and voxelotor 600 mg QD on Days 4 through 7.
Whole blood and plasma concentrations of voxelotor and plasma concentrations of caffeine, paraxanthine, S-warfarin, omeprazole, 5-hydroxyomeprazole, midazolam, and 1-hydroxymidazolam were determined using validated assays.

A further series deals with P-gp (Homo sapiens, UniProt P08183). Kind of series: Clinical DDI: voxelotor on digoxin. Conditions: in vivo.
Chain of P-gp (P08183 whole entry): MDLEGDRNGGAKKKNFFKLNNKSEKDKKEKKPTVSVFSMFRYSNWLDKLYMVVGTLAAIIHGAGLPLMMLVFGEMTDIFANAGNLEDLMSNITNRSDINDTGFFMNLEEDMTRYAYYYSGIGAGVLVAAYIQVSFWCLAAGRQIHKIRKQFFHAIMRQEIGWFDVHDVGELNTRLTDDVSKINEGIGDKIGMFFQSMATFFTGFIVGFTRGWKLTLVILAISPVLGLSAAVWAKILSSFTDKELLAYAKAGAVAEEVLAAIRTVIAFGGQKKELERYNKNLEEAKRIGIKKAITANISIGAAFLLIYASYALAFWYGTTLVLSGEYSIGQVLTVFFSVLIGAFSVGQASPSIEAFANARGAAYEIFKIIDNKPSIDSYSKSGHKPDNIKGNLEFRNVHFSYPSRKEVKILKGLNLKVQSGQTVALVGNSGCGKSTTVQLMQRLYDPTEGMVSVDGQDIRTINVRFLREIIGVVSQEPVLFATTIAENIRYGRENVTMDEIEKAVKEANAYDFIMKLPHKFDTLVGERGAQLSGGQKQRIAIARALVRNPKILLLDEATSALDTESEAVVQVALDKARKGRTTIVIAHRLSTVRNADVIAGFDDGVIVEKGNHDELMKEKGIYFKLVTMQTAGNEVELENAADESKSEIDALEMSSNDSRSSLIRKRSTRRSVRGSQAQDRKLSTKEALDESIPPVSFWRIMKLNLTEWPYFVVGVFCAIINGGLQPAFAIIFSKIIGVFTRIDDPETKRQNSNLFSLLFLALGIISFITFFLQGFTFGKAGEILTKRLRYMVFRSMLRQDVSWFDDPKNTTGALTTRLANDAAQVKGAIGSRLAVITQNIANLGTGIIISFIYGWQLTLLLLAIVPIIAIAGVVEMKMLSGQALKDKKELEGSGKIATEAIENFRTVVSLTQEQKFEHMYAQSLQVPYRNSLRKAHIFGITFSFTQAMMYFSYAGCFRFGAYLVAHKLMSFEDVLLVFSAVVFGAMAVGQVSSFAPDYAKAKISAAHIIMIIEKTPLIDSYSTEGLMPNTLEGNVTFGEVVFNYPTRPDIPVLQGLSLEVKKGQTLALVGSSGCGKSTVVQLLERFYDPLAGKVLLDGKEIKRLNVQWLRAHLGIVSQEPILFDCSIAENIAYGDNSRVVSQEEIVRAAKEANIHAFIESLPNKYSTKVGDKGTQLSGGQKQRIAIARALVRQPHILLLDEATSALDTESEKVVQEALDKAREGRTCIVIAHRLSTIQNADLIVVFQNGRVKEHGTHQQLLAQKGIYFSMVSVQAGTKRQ
The mark [1] stands for this setting: voxelotor 900 mg QD days 1-2, then 600 mg QD, midazolam hydrochloride 2 mg single dose.

Chain of CYP3A4 (P08684 whole entry): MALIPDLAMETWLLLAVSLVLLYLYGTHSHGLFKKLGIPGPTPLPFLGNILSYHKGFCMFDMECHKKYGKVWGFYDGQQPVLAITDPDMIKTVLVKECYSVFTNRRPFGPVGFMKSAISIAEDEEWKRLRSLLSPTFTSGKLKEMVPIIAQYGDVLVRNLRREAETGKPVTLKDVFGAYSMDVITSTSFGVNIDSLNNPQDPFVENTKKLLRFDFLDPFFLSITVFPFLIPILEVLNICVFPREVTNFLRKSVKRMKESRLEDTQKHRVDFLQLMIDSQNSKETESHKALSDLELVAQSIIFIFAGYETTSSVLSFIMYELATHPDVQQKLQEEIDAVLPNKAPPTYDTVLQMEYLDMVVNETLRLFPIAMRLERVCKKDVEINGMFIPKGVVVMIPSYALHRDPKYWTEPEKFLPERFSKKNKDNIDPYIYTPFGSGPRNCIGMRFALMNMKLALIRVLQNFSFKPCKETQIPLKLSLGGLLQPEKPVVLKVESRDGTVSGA

For `OCc1ncc2n1-c1ccc(Cl)cc1C(c1ccccc1F)=NC2` [1′-hydroxy-midazolam], the “increase of overall exposure of midazolam metabolite in the presence of voxelotor” value on CYP3A4 (setting [1]) is reported as 75%.
For `C[C@H]1O[C@@H](O[C@H]2[C@@H](O)C[C@H](O[C@H]3[C@@H](O)C[C@H](O[C@H]4CC[C@@]5(C)[C@H](CC[C@@H]6[C@@H]5C[C@@H](O)[C@]5(C)[C@@H](C7=CC(=O)OC7)CC[C@]65O)C4)O[C@@H]3C)O[C@@H]2C)C[C@H](O)[C@@H]1O` [digoxin], the “effect of concomitant OXBRYTA on digoxin (P-gp substrate)” value on P-gp is “did not alter digoxin to a clinically relevant extent”.
As for `Cc1ncc2n1-c1ccc(Cl)cc1C(c1ccccc1F)=NC2` [midazolam], the “observed exposure increase of midazolam with voxelotor” value on CYP3A4 is 1.6 fold. The “increase of overall exposure of midazolam in the presence of voxelotor” value on CYP3A4 (setting [1]) came out at 63%.
